Measurements as given in ChEMBL document CHEMBL2203232, “Design and discovery of new (3S,5R)-5-[4-(2-chlorophenyl)-2,2-dimethyl-5-oxopiperazin-1-yl]piperidine-3-carboxamides as potent renin inhibitors” (Bioorg Med Chem Lett, 2012).
Numbering of substitutions follows the chain as printed. Calls of active or inactive are those of the source. No cut-off for these calls is given here.

How the values were obtained:
Renin [1] = target: T1, Renin (Macaca fascicularis, UniProt Q6DLS0); assay: Inhibition of renin in cynomolgus monkey plasma after 60 mins by competitive radioimmunoassay
T1 sequence (Q6DLS0 whole entry): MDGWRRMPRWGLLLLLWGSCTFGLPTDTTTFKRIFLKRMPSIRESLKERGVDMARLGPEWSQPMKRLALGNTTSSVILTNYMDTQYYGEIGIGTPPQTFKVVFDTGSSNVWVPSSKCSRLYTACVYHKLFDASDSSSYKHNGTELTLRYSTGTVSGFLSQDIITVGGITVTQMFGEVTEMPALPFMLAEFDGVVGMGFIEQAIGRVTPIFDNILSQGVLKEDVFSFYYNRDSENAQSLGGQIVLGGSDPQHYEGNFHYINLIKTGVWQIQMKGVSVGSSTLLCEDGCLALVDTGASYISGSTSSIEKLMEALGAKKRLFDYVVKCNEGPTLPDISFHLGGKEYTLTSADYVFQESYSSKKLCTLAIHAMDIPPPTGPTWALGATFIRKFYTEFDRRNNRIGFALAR

Renin [2] = target: T2, Renin (Homo sapiens, UniProt P00797); assay: Inhibition of recombinant human renin using Arg-Glu(EDANS)-Ile-His-Pro-Phe-His-Leu-Val-Ile-His-Thr-Lys(DABCYL)-Arg as substrate incubated for 10 mins prior to substrate addition measured after 90 mins by fluorimetric analysis
T2 sequence (P00797 whole entry): T1 sequence (Q6DLS0 whole entry) with A68T, L214I, A235S

[3] = Cmax in Sprague-Dawley rat at 10 mg/kg, po; assay type: ADME, organism-based; design: dose 10 mg/kg, route oral; settings: in vivo
[4] = Volume of distribution at steady state in Sprague-Dawley rat at 1 mg/kg, iv; assay type: ADME, organism-based; design: dose 1 mg/kg, route intravenous; settings: in vivo, read-out: Vdss
[5] = Clearance in Sprague-Dawley rat at 1 mg/kg, iv; assay type: ADME, organism-based; design: dose 1 mg/kg, route intravenous; settings: in vivo
[6] = AUC (0 to 24 hrs) in Sprague-Dawley rat at 10 mg/kg, po; assay type: ADME, organism-based; design: time < 24 hr, dose 10 mg/kg, route oral; settings: plasma
Rattus norvegicus = assay: Antihypertensive activity in transgenic rat expressing human angiotensin and renin assessed as reduction in mean arterial blood pressure at 10 mg/kg, po measured up to 24 hrs; assay type: functional, organism-based; design: dose 10 mg/kg; settings: Artery
[7] = Oral bioavailability in Sprague-Dawley rat at 10 mg/kg; assay type: ADME, organism-based; settings: in vivo
[8] = Half life in Sprague-Dawley rat at 1 mg/kg, iv; assay type: ADME, organism-based; design: dose 1 mg/kg, route intravenous; settings: in vivo

Row | SMILES | IC50 (Renin [1]) [nM] | IC50 (Renin [2]) [nM] | also measured
1 | CCC[C@@H](NC(=O)[C@@H]1CNC[C@H](N2CC(=O)N(c3ccccc3Cl)CC2(C)C)C1)c1ccccc1 | 18 | 2.5 | 
2 | CC[C@H](CC(C)C)NC(=O)[C@@H]1CNC[C@H](N2CC(=O)N(c3ccccc3Cl)CC2(C)C)C1 | 16 | 2.8 | 
3 | CC(C)CCNC(=O)[C@@H]1CNC[C@H](N2CC(=O)N(c3ccccc3Cl)CC2(C)C)C1 | 54 |  | 
4 | CC(C)CCNC(=O)[C@@H]1CNC[C@H](C(=O)N2CC(=O)N(c3ccccc3Cl)CC2(C)C)C1 | > 1000 | > 1000 | 
5 | CC(C)CC(CC(C)C)NC(=O)[C@@H]1CNC[C@H](N2CC(=O)N(c3ccccc3Cl)CC2(C)C)C1 | 10 |  | 
6 | CC(C)C[C@@H](NC(=O)[C@@H]1CNC[C@H](N2CC(=O)N(c3ccccc3Cl)CC2(C)C)C1)C(O)C(C)C (stereo in doubt; 14) | 7.5 | 2.5 | 
7 | CC(C)C[C@@H](NC(=O)[C@@H]1CNC[C@H](N2CC(=O)N(c3ccccc3Cl)CC2(C)C)C1)c1ccccc1 | 9 | 2.1 | 
8 | CC(C)C[C@@H](NC(=O)[C@@H]1CNC[C@H](N2CC(=O)N(c3ccccc3Cl)CC2(C)C)C1)C(=O)N(C)C | 23 | 8.4 | 
9 | CC(C)CCNC(=O)[C@@H]1CNC[C@H](CN2CC(=O)N(c3ccccc3Cl)CC2(C)C)C1 | > 1000 |  | 

Stronger by IC50 (Renin [1]), values ahead:

Row | IC50 (Renin [1]) [nM] | IC50 (Renin [2]) [nM] | SMILES | also measured
10 | 6.6 | 2.1 | CC[C@@H](NC(=O)[C@@H]1CNC[C@H](N2CC(=O)N(c3ccccc3Cl)CC2(C)C)C1)c1ccccc1 | 
11 | 4.8 | 2.3 | CC(C)C[C@@H](NC(=O)[C@@H]1CNC[C@H](N2CC(=O)N(c3ccccc3Cl)CC2(C)C)C1)C(O)C(C)C (stereo in doubt; 13) | 
12 | 4.2 | 2.1 | CC(C)C[C@@H](NC(=O)[C@@H]1CNC[C@H](N2CC(=O)N(c3ccccc3Cl)CC2(C)C)C1)c1cccnc1 | 
13 | 1.4 | 1.3 | CCOC[C@@H](CC(C)C)NC(=O)[C@@H]1CNC[C@H](N2CC(=O)N(c3ccccc3Cl)CC2(C)C)C1.O=C(O)/C=C/C(=O)O | Cmax [3]: 540 ng/mL; Vd [4]: 5.8 L/kg; clearance [5]: 31 mL/min/kg; AUC(0-t) at 24 h [6]: 1940 ng·h/mL; Activity (Rattus norvegicus): Active; bioavailability [7]: 45%; half-life [8]: 3.2 h
